Reference: patent US20080063628A1, “METHODS TO PROMOTE CELL DIFFERENTIATION” (priority 2006, published 2008)

System: second amniotic fluid-derived cell line
Assay: Two sequential low dose trichostatin A treatments, gene expression by RT-PCR (Example 7)
Type: cell-based, human
Settings: for Gata1 gene expression / HNF (HNF-3 beta) gene expression / Insulin gene expression / Pdx-1 gene expression / sox17 gene expression: 500 nM 0-24 h + 96-120 h
Protocol: Several cell lines obtained from different amniotic fluid specimens (see Example 14) and pancreas donors (see Example 13) were tested with similar results. Two lines at similar passage number but derived from different amniotic fluid specimens are shown in Table VII-A and Table VII-B for this example. One of these cell lines was also used in examples 2 and 4 above. In addition, this example also contains comparison data in Table VII-C and Table VII-D for a single pancreatic-derived stromal line grown to early and late passage number.
Amniotic fluid derived cells or pancreatic-derived stromal cells were seeded into 24-well tissue culture plates at a density of 5000/cm^2 and cultured in AMNIOMAX (Invitrogen) or DMEM with 10% FBS respectively under standard cell culture conditions until confluent. After the cells reached confluency, amniotic fluid derived cells were treated at time 0 hours with a dose of 500 nM trichostatin A, and pancreatic-derived stromal cells were treated with a dose of 1.25 μM trichostatin A solubilized in DMSO and medium. At time 24 hours, cell cultures underwent a complete medium change to remove all traces of trichostatin A. At time 96 hours, cell cultures were re-fed with fresh medium and received a second dose of trichostatin A at the same concentration as used previously. At time 120 hours, cell cultures again underwent a complete medium change and were cultured for an additional 24 hours or […] total incubation time.
Samples were taken daily for RT-PCR at the times indicated in Table VII-A to D. The culture medium was removed, and samples were rinsed in PBS then collected in RLT with β-mercaptoethanol (Qiagen). RNA was purified using the RNeasy Mini Kit (Qiagen) and RNA quantity and quality were determined using a spectrophotometer. cDNA was made using the iScript cDNA synthesis kit (BioRad).
Samples of 20 ng cDNA were used in each reaction to determine the expression levels of the following genes in amniotic fluid-derived cells: Gata1, HNF-3 beta, Pdx-1, insulin, and Sox17. Similarly, samples of 20 ng cDNA were used in each reaction to determine the expression level of the following genes in pancreatic-derived cells: glucagon, HNF-3 beta, insulin and Pdx-1. Real-Time PCR was performed on the Applied Biosystems 7500, and data was analyzed using the accompanying software according to the methods described in Example 15.
Real-time PCR amplifcation and quantitative analysis. Unless otherwise stated, all reagents were purchased from Applied Biosystems. Real-time PCR reactions were performed using the ABI PRISM™ 7500 Sequence Detection System. TAQMAN™ FAST UNIVERSAL PCR MASTER MIX™ (ABI, CA) was used with 20 ng of reverse transcribed RNA in a total reaction volume of 20 μl. Each cDNA sample was run in duplicate to allow correction of pipetting errors. Primers and FAM-labeled TAQMAN™ probes were used at concentrations of 200 nM. The level of expression for each target gene was normalized using the pre-developed Applied Biosystem's human glyceraldehyde-3-phosphate dehydrogenase (GAPDH) endogenous control kit. Primers and probes were designed using either ABI PRISM PRIMER EXPRESS™ software or a pre-developed ABI gene analysis kit. For each gene, either one of the primers or the probe were designed to be exon-boundary spanning. This eliminated the possibility of the primers/probe binding to any genomic DNA present. The primer and probe sets are listed as follows: Pdx-1 (Hs00426216), Insulin (Hs00355773), glucagon (Hs00174967), and FoxA2 (HNF 3-beta) (Hs00232764). The remaining primers were designed using the PRIMERS program (ABI, CA). After an initial 95° C. incubation for 20 sec, samples were cycled 40 times in two stages: a denaturation step at 95° C. for 3 sec, followed by an annealing/extension step at 60° C. for 30 sec. […]

In the case of CC(/C=C/C(=O)NO)=C\[C@@H](C)C(=O)c1ccc(N(C)C)cc1 [trichostatin A], the “Pdx-1 RT-PCR detection cycle” value (0.5 μM, 24 hours) is reported as 39 cycles, the “Insulin RT-PCR detection cycle” value (0.5 μM, 72 hours and remainder of the experiment) is reported as 34 cycles and the “HNF-3 beta RT-PCR detection cycle” value (0.5 μM, until 72 hours) is reported as 34 cycles. For the same compound, the Gata1 gene expression (24 hrs) was “nd (not detectable at >40 cycles by RT-PCR)”, the “HNF (HNF-3 beta) gene expression” value (24 hrs) was “+++ (detectable at less than 35 cycles RT-PCR with SE less than 0.9)” and the Insulin gene expression (24 hrs) was “nd (not detectable at >40 cycles by RT-PCR)”. For the same compound, the Pdx-1 gene expression (24 hrs) was “+ (detectable between 35 and 40 cycles RT-PCR)”, the sox17 gene expression (24 hrs) was “+++ (detectable at less than 35 cycles RT-PCR with SE less than 0.9)” and the Gata1 gene expression (48 hrs) was “nd (not detectable at >40 cycles by RT-PCR)”. The “HNF (HNF-3 beta) gene expression” value (48 hrs) was “+++ (detectable at less than 35 cycles RT-PCR with SE less than 0.9)”, the Insulin gene expression (48 hrs) was “nd (not detectable at >40 cycles by RT-PCR)” and the Pdx-1 gene expression (48 hrs) was “nd (not detectable at >40 cycles by RT-PCR)”. The sox17 gene expression (48 hrs) was “+++ (detectable at less than 35 cycles RT-PCR with SE less than 0.9)”, the Gata1 gene expression (72 hrs) was “nd (not detectable at >40 cycles by RT-PCR)” and the “HNF (HNF-3 beta) gene expression” value (72 hrs) was “+++ (detectable at less than 35 cycles RT-PCR with SE less than 0.9)”. The Insulin gene expression (72 hrs) was “+++ (detectable at less than 35 cycles RT-PCR with SE less than 0.9)”, the Pdx-1 gene expression (72 hrs) was “nd (not detectable at >40 cycles by RT-PCR)” and the sox17 gene expression (72 hrs) was “+++ (detectable at less than 35 cycles RT-PCR with SE less than 0.9)”. The Gata1 gene expression (96 hrs) was “nd (not detectable at >40 cycles by RT-PCR)”, the “HNF (HNF-3 beta) gene expression” value (96 hrs) was “+ (detectable between 35 and 40 cycles RT-PCR)” and the Insulin gene expression (96 hrs) was “+++ (detectable at less than 35 cycles RT-PCR with SE less than 0.9)”. For the same compound, the Pdx-1 gene expression (96 hrs) was “nd (not detectable at >40 cycles by RT-PCR)”, the sox17 gene expression (96 hrs) was “+++ (detectable at less than 35 cycles RT-PCR with SE less than 0.9)” and the Gata1 gene expression (120 hrs) was “nd (not detectable at >40 cycles by RT-PCR)”. The “HNF (HNF-3 beta) gene expression” value (120 hrs) was “+ (detectable between 35 and 40 cycles RT-PCR)”, the Insulin gene expression (120 hrs) was “+ (detectable between 35 and 40 cycles RT-PCR)” and the Pdx-1 gene expression (120 hrs) was “nd (not detectable at >40 cycles by RT-PCR)”. The sox17 gene expression (120 hrs) was “+++ (detectable at less than 35 cycles RT-PCR with SE less than 0.9)”, the Gata1 gene expression (144 hrs) was “nd (not detectable at >40 cycles by RT-PCR)” and the “HNF (HNF-3 beta) gene expression” value (144 hrs) was “+ (detectable between 35 and 40 cycles RT-PCR)”. The Insulin gene expression (144 hrs) was “+++ (detectable at less than 35 cycles RT-PCR with SE less than 0.9)”, the Pdx-1 gene expression (144 hrs) was “nd (not detectable at >40 cycles by RT-PCR)” and the sox17 gene expression (144 hrs) was “+++ (detectable at less than 35 cycles RT-PCR with SE less than 0.9)”.
